These results are taken from patent publication US20240360133A1, “FUSED TRICYCLIC COMPOUND, PREPARATION METHOD THEREFOR AND APPLICATION THEREOF IN MEDICINE” (Jiangsu Hengrui Pharmaceuticals Co., Ltd., priority 2020, published 2024).

For this assay, the target named is T1, human TLR7 (Homo sapiens, UniProt Q9NYK1).
T1 construct: host or cells: HEK-Blue hTLR7 (HEK293)
T1 sequence (Q9NYK1 27-1049): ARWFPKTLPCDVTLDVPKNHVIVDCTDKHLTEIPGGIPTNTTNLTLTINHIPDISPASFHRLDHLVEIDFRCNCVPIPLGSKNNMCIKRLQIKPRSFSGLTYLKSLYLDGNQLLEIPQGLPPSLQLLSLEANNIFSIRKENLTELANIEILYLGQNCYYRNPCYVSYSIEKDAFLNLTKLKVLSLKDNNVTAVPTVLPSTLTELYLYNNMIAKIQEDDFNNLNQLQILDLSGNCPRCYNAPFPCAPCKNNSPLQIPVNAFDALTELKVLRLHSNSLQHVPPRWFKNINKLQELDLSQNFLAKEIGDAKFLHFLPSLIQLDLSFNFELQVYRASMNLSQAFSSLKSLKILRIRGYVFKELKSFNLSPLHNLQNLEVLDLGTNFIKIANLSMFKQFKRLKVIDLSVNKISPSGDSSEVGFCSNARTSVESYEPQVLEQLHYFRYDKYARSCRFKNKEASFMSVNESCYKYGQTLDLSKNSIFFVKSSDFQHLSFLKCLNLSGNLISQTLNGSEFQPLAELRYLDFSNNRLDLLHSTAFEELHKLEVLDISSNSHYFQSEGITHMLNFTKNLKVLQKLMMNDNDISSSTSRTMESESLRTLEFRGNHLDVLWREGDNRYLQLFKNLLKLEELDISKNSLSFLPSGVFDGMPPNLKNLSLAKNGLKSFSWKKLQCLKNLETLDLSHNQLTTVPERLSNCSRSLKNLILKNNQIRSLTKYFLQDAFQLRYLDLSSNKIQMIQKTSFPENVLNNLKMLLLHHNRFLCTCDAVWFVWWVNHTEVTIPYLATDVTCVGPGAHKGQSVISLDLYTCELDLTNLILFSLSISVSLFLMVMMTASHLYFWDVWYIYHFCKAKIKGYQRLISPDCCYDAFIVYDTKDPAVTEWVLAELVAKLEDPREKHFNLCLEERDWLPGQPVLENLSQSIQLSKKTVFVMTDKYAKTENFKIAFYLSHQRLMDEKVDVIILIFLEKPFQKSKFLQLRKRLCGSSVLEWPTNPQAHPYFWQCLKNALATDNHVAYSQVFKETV
The experiment in a line: Inhibitory effect on human TLR7 activation pathway (HEK-Blue hTLR7 SEAP reporter). Type of assay: cell-based. The note with it: HEK-Blue hTLR7 cells, 1 μM resiquimod, 20 h, SEAP OD620. Here is the method:
• 1. HEK-Blue™ hTLR7 cell (Invivogen) • 2. Resiquimod (R848, Invivogen) • 3. Alkaline phosphatase detection medium (Quanti-Blue Detection, Invivogen) • 4. Blasticidin (Invivogen) • 5. Zeocin (Invivogen) • 6. Normocin (Invivogen) • 7. DMEM/HIGH Glucose (GE Healthcare) • 8. Fetal bovine serum (FBS, Gibco) • 9. Phosphate-buffered saline (Shanghai BasalMedia Technologies Co., Ltd.) • 10. Sterile purified water (made in-house by Shanghai Hengrui) • 11. 15 mL centrifuge tube (Corning) • 12. %-well formulating plate (Corning) • 13. 96-well flat-bottom cell culture plate (Corning) • 14. Constant-temperature cell incubator (Thermo scientific) • 15. Constant-temperature incubator (Shanghai Yiheng Scientific Instruments Co., Ltd.) • 16. PHERAstar FS microplate reader (BMG Labtech)
HEK-Blue™ hTLR7 cells were purchased from Invivogen. These cells are HEK293 cells transfected with the human Toll-like receptor 7 (TLR7) gene and the secreted alkaline phosphatase reporter gene (SEAP). The alkaline phosphatase reporter gene (SEAP) is under the regulation of the IFN—P minimal promoter comprising 5 NF-kB and AP-1 binding sites. Upon activation of TLR7 with an agonist, SEAP secretion is induced via downstream NF-kB and AP-1. After addition of an antagonist compound, the pathway described above is inhibited, and SEAP secretion is reduced. The activity of the compounds for the TLR7 pathway was evaluated by measuring OD620 through the SEAP substrate.
20 mM test compounds dissolved in 100% DMSO were serially diluted with 100% DMSO to 2000, 400, 80, 16, 3.2, 0.64, 0.128, 0.0256 μM, with blank wells containing 100% DMSO. The compounds and 100% DMSO were then 20-fold diluted in DMEM/HIGH glucose media containing 10% inactivated FBS (complete media, the same applies below). Resiquimod was diluted to 10 μM with sterile water. The 10 μM resiquimod dilution in sterile water was added to a 96-well cell culture plate at 20 μL/well. The above compounds diluted in complete media and 100% DMSO were then added at 20 μL/well to wells containing resiquimod, 20 μL of sterile water and 20 μL of 100% DMSO diluted in the complete medium were added to negative control wells.
HEK-Blue™ hTLR7 cells were cultured in a DMEM/HIGH glucose medium containing 10% inactivated FBS, 100 μg/mL Normocin, 10 μg/mL blasticidin, and 100 μg/mL Zeocin. Cells that were in a good state of growth and had grown to 70%-80% were collected. The growth medium was discarded, 5-10 mL of PBS pre-heated at 37° C. was added to wash the cells once, and 2-5 mL of pre-heated PBS was added. The cells were cultured at 37° C. for 1-2 min, dispersed by pipetting, transferred to a 15 mL centrifuge tube, and counted, and the cell density was adjusted to 4.8-10′/mL with the complete medium. After density adjustment, 160 μL of the resulting cell suspension was added to the above 96-well cell culture plate to a final number of cells per well of 76,500/well. The final concentration of resiquimod was 1 μM, and the final concentrations of the test compounds were 10,000, 2000, 400, 80, 16, 3.2, 0.64, and 0.128 nM. The cells were cultured in a 37° C., 5% CO2 incubator for 20 h. Then 20 μL of the supernatant was added to 180 μL of the prepared alkaline phosphatase detection medium and incubated in the dark in a constant-temperature incubator at 37° C. for 120 min. Then the OD620 absorbance readings were taken on a microplate reader. The inhibition rate was calculated using the following formula: […]
Inhibition curves were plotted using Graphpad Prism software according to the concentrations of the compounds and the corresponding inhibition rates, and the concentrations of the compounds at which the inhibition rate reached 50%, i.e., IC50 values, were calculated and are shown in Table 1.

Usually IC50 stands for the point on the concentration scale where inhibition reaches its midpoint. Compound `Cc1cc(-c2[nH]c3cc4c(nc3c2C(C)C)CNCC4)cc(C)n1` [Example 1, 2-(2,6-Dimethylpyridin-4-yl)-3-isopropyl-5,6,7,8-tetrahydro-1H-pyrrolo[3,2-b][1,7]naphthyridine] registered an IC50 of 7.7 nM. Next, `Cc1cc(-c2[nH]c3cc4c(nc3c2C(C)C)CN(C(C)C)CC4)cc(C)n1` [Example 2, 2-(2,6-Dimethylpyridin-4-yl)-3,6-diisopropyl-5,6,7,8-tetrahydro-1H-pyrrolo[3,2-b][1,7]naphthyridine]: 29.9 nM; `Cc1cc(-c2[nH]c3cc4c(nc3c2C(C)C)CN(CCc2ccc(N3CCNCC3)nc2)CC4)cc(C)n1` [Example 4, 2-(2,6-Dimethylpyridin-4-yl)-3-isopropyl-6-(2-(6-(piperazin-4-yl)pyridin-3-yl)ethyl)-5,6,7,8-tetrahydro-1H-pyrrolo[3,2-b][1,7]naphthyridine]: 6.8 nM.

`Cc1cc(-c2[nH]c3cc4c(nc3c2C(C)C)CN(Cc2ccc(N3CCNCC3)cn2)CC4)cc(C)n1` [Example 5, 2-(2,6-Dimethylpyridin-4-yl)-3-isopropyl-6-((5-(piperazin-1-yl)pyridin-2-yl)methyl)-5,6,7,8-tetrahydro-1H-pyrrolo[3,2-b][1,7]naphthyridine] had a half-inhibitory concentration (IC50) of 5.7 nM.

On to `Cc1cc(-c2[nH]c3cc4c(nc3c2C(C)C)CN(CC23CCC(N)(CC2)CC3)CC4)cc(C)n1` [Example 7, 4-((2-(2,6-Dimethylpyridin-4-yl)-3-isopropyl-1,5,7,8-tetrahydro-6H-pyrrolo[3,2-b][1,7]naphthyridin-6-yl)methyl)bicyclo[2.2.2]octyl-1-amine], for which inhibition was half-maximal at 7.1 nM (IC50). The value for `Cc1cc(-c2[nH]c3cc4c(nc3c2C(C)C)CN(CC(N)=O)CC4)cc(C)n1` [Example 8, 2-(2-(2,6-Dimethylpyridin-4-yl)-3-isopropyl-1,5,7,8-tetrahydro-6H-pyrrolo[3,2-b][1,7]naphthyridin-6-yl)acetamide] was 18.2 nM; that for `Cc1c(-c2[nH]c3cc4c(nc3c2C(C)C)CNCC4)cn2ncnc2c1C` [Example 9, 2-(7,8-Dimethyl-[1,2,4]triazolo[1,5-a]pyridin-6-yl)-3-isopropyl-5,6,7,8-tetrahydro-1H-pyrrolo[3,2-b][1,7]naphthyridine] was 4.9 nM. Next, `Cc1c(-c2[nH]c3cc4c(nc3c2C(C)C)CN(CC(N)=O)CC4)cn2ncnc2c1C` [Example 10, 2-(2-(7,8-Dimethyl-[1,2,4]triazolo[1,5-a]pyridin-6-yl)-3-isopropyl-1,5,7,8-tetrahydro-6H-pyrrolo[3,2-b][1,7]naphthyridin-6-yl)acetamide]: 21.5 nM.
